From publication PMC11613437, “Prioritization of Eleven-Nineteen-Leukemia Inhibitors as Orally Available Drug Candidates for Acute Myeloid Leukemia” (Journal of Medicinal Chemistry, 2024)

Experiments:
NLuc-ENL YEATS = biological target: T1, NLuc-ENL YEATS (Homo sapiens, UniProt Q03111); assay: ENL-NanoBRET inhibitor competitive assay; type: cell-based; details: HEK293T cells stably expressing NLuc-ENL YEATS, 1 μM Tracer 2, 2 h; mean ± SD, n = 3
T1 construct: DNA encoding the ENL YEATS domain (aa 1–148) was cloned into an NLuc containing plasmid; expressed in transfected cells
T1 sequence (Q03111 1-148): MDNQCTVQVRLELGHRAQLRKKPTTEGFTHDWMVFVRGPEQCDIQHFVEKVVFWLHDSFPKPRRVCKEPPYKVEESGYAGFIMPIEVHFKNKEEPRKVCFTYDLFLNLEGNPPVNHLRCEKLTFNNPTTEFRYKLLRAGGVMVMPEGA
Description: Approximately 1.8 × 10^4 HEK293T cells (100 μL) stably expressing NLuc-ENL YEATS were seeded into a white nonbinding 96-well assay plate and incubated overnight at 37 °C in a humidified 5% CO2 atmosphere. After removal of the medium, the cells were added with a tracer (with or without excess of unlabeled compound) in the Opti-MEM with 0.1% DMSO. After incubation at 37 °C for 2 h the assay plate was equilibrated at room temperature for 15 min. For BRET detection, the NanoGlo Substrate and the extracellular NanoLuc inhibitor (Promega, N2160) were diluted with Opti-MEM as described in protocol to afford detection solution. 50 μL of the detection solution was added per well and the plate was incubated for 3 min at room temperature. The donor emission was measured at 450 nm and the acceptor emission at 610 nm using a BioTek SYNERGY neo2 multimode reader. The BRET ratio was calculated according to the following formula: BRET ratio = [(acceptorsample/donorsample) – (acceptorno-tracer control/donorno-tracer control)] × 1000.
Sample procedures were followed for cell seeding as described in the previously described tracer affinity assay. After removal of the medium, the cells were added with a tracer in the medium (1.1 μM, 100 μL) and varied concentrations of a test compound in 0.1% DMSO (10 μL). The plate was thoroughly mixed on an orbital shaker for 15 s at 900 rpm. Then the cells were incubated at 37 °C, 5% CO2 for 2 h for BRET ratio detection as described previously.

[1] = Log D at pH 7.4 (chromatographic procedure); type: physicochemical; details: n-octanol / aqueous buffer pH 7.4, pH 7.4
Description: Log D at 7.4, which is a partition coefficient between n-octanol and aqueous buffer pH 7.4 of the compounds was measured on the chromatographic procedure whose condition was developed based on a published method.[35]

[2] = Cell toxicity assay (CCK-8), MOLM-13; type: cell-based; details: human, MOLM-13 cells, 8 day treatment, n = 3; read-out: CC50 MOLM-13 (Cellular IC50, 8-days incubation)
Description: (§1) Approximately 1 × 10^4 JURKAT, MOLM-13, MV4-11 and HEK293T cells in RPMI 1640 (no phenol red) (100 μL) were added to a 96-well plate and treated with DMSO or a compound at indicated concentrations for 72 h or 8 days. Cell viability was measured using the CCK-8 kit (Abcam, ab228554) according to the manufacturer’s instructions.

[3] = Cell toxicity assay (CCK-8), Jurkat; type: cell-based; details: human, Jurkat cells; for IC50 at 8 days: 8 day treatment, n = 3, read-out: CC50 Jurkat (Cellular IC50, 8-days incubation)
Description: as §1

[4] = Cell toxicity assay (CCK-8), HEK293T; type: cell-based; details: human, HEK293T cells; 72 h (3-days) treatment, n = 3; read-out: CC50 HEK293T (Cellular IC50, 3-days incubation)
Description: as §1

MOLM-13 cells = assay: Anti-proliferation assay, MOLM-13; type: cell-based; details: Homo sapiens, MOLM-13, 336 h, approximately 2 weeks, read-out: inhibition of MOLM-13 cell proliferation
Description: Cell proliferation assays were carried out in a 96-well tissue culture plate at 2 × 10^4 cells/well for all cell lines except in 200 μL with a compound added as 1:1000 dilution of DMSO stocks in triplicate. Culture density was determined every 3–4 days using the countess automated cell counter, after which 2 × 10^4 live cells were reseeded in fresh media and compound. The cumulative cell count was achieved by back calculation.

MOLM-13 and MV4-11 cells = assay: Cell cycle analysis; type: cell-based; details: 72 h treatment
Description: For cell cycle analysis, 5 × 10^6 cells were cultured at 2 mL/well in a 6-well plate treated in a ratio of 1:1000 with compound stocks in DMSO or 1:1000 with DMSO in triplicate. Cell cycle staining was performed by using a cell cycle analysis kit (Abcam, ab287852) and treated according to the protocol provided. The signal was analyzed by flow cytometry and the cytometry results were analyzed by CytExpert software.

ENL = biological target: T2, ENL (Homo sapiens, UniProt Q03111); assay: Cellular thermal shift assay (CETSA); type: cell-based; details: MOLM-13 and MV4-11 cells, 10 μM, 3 and 6 h
T2 construct: CETSAs of ENL in MOLM-13 (top) and MV4-11 (bottom) cells; endogenous in cells; host or cells: MOLM-13 and MV4-11
T2 sequence (Q03111 1-559): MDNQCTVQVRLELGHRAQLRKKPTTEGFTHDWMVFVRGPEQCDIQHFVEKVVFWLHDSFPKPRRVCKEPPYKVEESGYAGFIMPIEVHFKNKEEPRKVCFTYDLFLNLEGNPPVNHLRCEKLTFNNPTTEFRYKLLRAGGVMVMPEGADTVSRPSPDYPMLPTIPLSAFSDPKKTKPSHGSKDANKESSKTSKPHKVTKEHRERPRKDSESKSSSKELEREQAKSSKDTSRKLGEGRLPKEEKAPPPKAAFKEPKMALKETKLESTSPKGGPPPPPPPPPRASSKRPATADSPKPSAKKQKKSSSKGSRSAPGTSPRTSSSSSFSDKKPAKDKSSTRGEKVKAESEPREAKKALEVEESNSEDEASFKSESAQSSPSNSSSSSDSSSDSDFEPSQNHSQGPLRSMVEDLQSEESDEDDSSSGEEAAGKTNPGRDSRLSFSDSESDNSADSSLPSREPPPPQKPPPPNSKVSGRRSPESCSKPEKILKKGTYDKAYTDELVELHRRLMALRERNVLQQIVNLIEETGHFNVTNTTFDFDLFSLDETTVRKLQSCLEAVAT
Description: MOLM-13 and MV4-11 were incubated with 10 μM of inhibitor 13 for 3 and 6 h, respectively. The cells were then collected and washed with PBS 3 times. The cell pellets were resuspended in PBS-containing protease inhibitors and aliquoted into PCR microtubes (approximately 3 million cells in 54 μL). Cells were heated at indicated temperatures for 3 min in a thermal cycler (Bio-Rad) and then incubated at room temperature for 2 min. A total of 6 μL of 10× cell lysis buffer (8% NP-40, 50% glycerol, and 10 mM dithiothreitol) was added to each sample before subjecting the sample to three freeze–thaw cycles by liquid nitrogen and 37 °C water bath incubations to lyse the cells. The cell lysates were centrifuged at 13,000 rpm at 4 °C for 10 min, and the supernatants were analyzed using SDS-PAGE and Western blotting.

| Compound | IC50 (NLuc-ENL YEATS) [µM] | chromatographic logD [1] | IC50 at 8 days [2] [µM] | IC50 at 8 days [3] [µM] | IC50 at 72 h [4] [µM] | inhibition at 1 µM (MOLM-13 cells) [%] | cell cycle: G1 phase (MOLM-13 and MV4-11 cells) | CETSA: thermal stability of ENL vs DMSO at elevated temperatures (ENL) | CC50 at 72 h ([3]; 72 h treatment (superscript a)) [µM] | inhibition at 10 µM (MOLM-13 cells; 10 μM) [%] |
| --- | --- | --- | --- | --- | --- | --- | --- | --- | --- | --- |
| CC(C)[C@H]1CCN1Cc1cc2cnc(NC(=O)c3ccc4nncn4c3)cc2[nH]1 [SR-C-107 (R), (R)-N-(2-((2-Isopropylazetidin-1-yl)methyl)-1H-pyrrolo[3,2-c]pyridin-6-yl)-[1,2,4]triazolo[4,3-a]pyridine-6-carboxamide] | 0.59 | 0.97 | 1.25 ± 0.18 | > 64 | > 64 | ~90 | increase in the G1 phase | higher abundance of ENL | – | – |
| CC(C)C1CCN1Cc1ccc(CNC(=O)c2ccc3nncn3c2)cc1 (stereo not drawn) [inhibitor 13] | 4.29 | 0.31 | 6.06 | 22 ± 1.79 | > 64 | 30 | increase in the G1 phase | higher abundance of ENL | > 64 | 85 |
